Measured values from patent publication US20260356860A1, “2-SUBSTITUTED 3,4A,5,7,8,8A-HEXAHYDRO-4H-THIOPYRANO[4,3-DJPYRIMIDIN-4-ONES FOR WOUND TREATMENT” (priority 2022, published 2026).

Columns and labels:
Assay in all cases: Bacteriostasis, log reduction
Type in all cases: cell-based
[1] = system: K. pneumoniae (derived from ATCC ® 10031 ™); details: K. pneumoniae ATCC 10031
Procedure: (§1) In order to assess the log reduction capabilities of compounds of Formula (1), testing was performed on organisms that are found in acute and chronic wounds. Triplicate tubes were prepared for each bacteria using 50 μL of inoculum (about 1×10^6 CFU/mL) which was added to 450 μL of compound solution (compound of Formula (I)) (or 100 μL of inoculum in 900 μL of compound solution), resulting in a final inoculum of about 1×10^5 CFU/mL, as shown in Table 4.
(§2) Tubes were mixed with a vortex and then incubated in a shaking incubator at 175 RPM and 35° C. to 37° C.
(§3) Positive control in Tables 5a and 5b was 1 mL of 0.89% saline with 1 mL of the 1×10^6 CFU/mL of the organism.
(§4) For Compounds 1, 7, 8, 10, and 18 in Tables 6, 7-A, 7-B, 8, 9, 10-A, 10-B, and 11: The compound solutions were prepared with compound (30 mg), polysorbate 20 (1.6 mL), butylene glycol (1.6 mL), phosphatidyl choline (0.66 g), ethanol (1.6 mL), hydroxypropyl cellulose (0.26 g), and ultra pure water (24.9 mL).
(§5) XAV939 Control in Table X1 was XAV939 (30 mg), polysorbate 20 (1.6 mL), butylene glycol (1.6 mL), phosphatidyl choline (0.66 g), ethanol (1.6 mL), ultra pure water (24.9 mL), and hydroxypropyl cellulose (0.26 g).
(§6) GO-HA Control in Table X2 was GO-HA (30 mg), polysorbate 20 (1.6 mL), butylene glycol (1.6 mL), phosphatidyl choline (0.66 g), ethanol (1.6 mL), ultra pure water (24.9 mL), and hydroxypropyl cellulose (0.26 g).
(§7) For Compound 18+GO-HA in Tables 6 and X4: compound 18 (45 mg), GO-HA (45 mg), polysorbate 20 (2 mL), butylene glycol (2 mL), phosphotidyl choline (0.5 g), ethanol (2 mL), hydroxypropyl cellulose (0.40 g), and ultra pure water (40 mL).
(§8) For XAV939+GO-HA in Tables 6 and X3-A, and X3-B: XAV939 (45 mg), GO-HA (45 mg), butylene glycol (2 mL), polysorbate 20 (2 mL), phosphotidyl choline (0.5 g), ethanol (2 mL), hydroxypropyl cellulose (0.40 g), and ultra pure water (40 mL).
(§9) Testing was performed at two time points: 18 to 24 hours, and […].

[2] = system: E. coli 0157:H7 (derived from ATCC ® 12900 ™); details: E. coli 0157:H7 ATCC 12900
Procedure: as §1, §2, §3, §4, §5, §6, §7, §8, §9

[3] = system: P. aeruginosa (derived from ATCC ® 9027 ™); details: P. aeruginosa ATCC 9027
Procedure: as §1, §2, §3, §4, §5, §6, §7, §8, §9

[4] = system: E. coli (derived from ATCC ® 8739 ™); details: E. coli ATCC 8739
Procedure: as §1, §2, §3, §4, §5, §6, §7, §8, §9

[5] = system: P. aeruginosa (derived from ATCC ® 15442 ™); details: P. aeruginosa ATCC 15442
Procedure: as §1, §2, §3, §4, §5, §6, §7, §8, §9

[6] = system: S. aureus (MRSA) (derived from ATCC ® 33593 ™); details: for Average result / Log Reduction / Log Value: S. aureus (MRSA) ATCC 33593
Procedure: as §1, §2, §3, §4, §5, §6, §7, §8, §9

[7] = system: E. coli (derived from ATCC ® 25922 ™); details: E. coli ATCC 25922
Procedure: as §1, §2, §3, §4, §5, §6, §7, §8, §9

[8] = system: S. maltophilia (derived from ATCC ® 13637 ™); details: S. maltophilia ATCC 13637
Procedure: as §1, §2, §3, §4, §5, §6, §7, §8, §9

[9] = system: A. baumannii (derived from ATCC ® 19606 ™); details: A. baumannii ATCC 19606
Procedure: as §1, §2, §3, §4, §5, §6, §7, §8, §9

[10] = system: S. aureus (derived from ATCC ® 6538 ™); details: S. aureus ATCC 6538
Procedure: as §1, §2, §3, §4, §5, §6, §7, §8, §9

[11] = system: S. epidermidis (derived from ATCC ® 14990 ™); details: S. epidermidis ATCC 14990
Procedure: as §1, §2, §3, §4, §5, §6, §7, §8, §9

[12] = system: P. vulgaris (derived from ATCC ® 8427 ™); details: P. vulgaris ATCC 8427
Procedure: as §1, §2, §3, §4, §5, §6, §7, §8, §9

`O=c1[nH]c(-c2ccc(B(O)O)cc2)nc2c1CSCC2` [Compound 1, (4-(4-oxo-3,5,7,8-tetrahydro-4H-thiopyrano[4,3-d]pyrimidin-2-yl)phenyl)boronic acid] was tested, and the Average result ([1]; 24 h) was 1.1 × 10^3, the “Log Reduction” value ([1]; 24 h) was 1.8 and the “Log Value” ([1]; 24 h) was 3.0. For the same compound, the Average result ([1]; 72 h) was under 200, the “Log Reduction” value ([1]; 72 h) was over 2.5 and the “Log Value” ([1]; 72 h) was under 2.3. For the same compound, the Average result ([2]; 24 h) was 5.5 × 10^3, the “Log Reduction” value ([2]; 24 h) was 0.5 and the “Log Value” ([2]; 24 h) was 3.7. The Average result ([2]; 72 h) was under 200, the “Log Reduction” value ([2]; 72 h) was over 1.9 and the “Log Value” ([2]; 72 h) was under 2.3. For the same compound, the Average result ([3]; 24 h) was under 200, the “Log Reduction” value ([3]; 24 h) was over 3.0 and the “Log Value” ([3]; 24 h) was under 2.3. The Average result ([3]; 72 h) was under 200, the “Log Reduction” value ([3]; 72 h) was over 3.0 and the “Log Value” ([3]; 72 h) was under 2.3. For the same compound, the Average result ([4]; 24 h) was 1.3 × 10^4, the “Log Reduction” value ([4]; 24 h) was 1.2 and the “Log Value” ([4]; 24 h) was 4.1. The Average result ([4]; 72 h) was under 200, the “Log Reduction” value ([4]; 72 h) was over 3.0 and the “Log Value” ([4]; 72 h) was under 2.3. For the same compound, the Average result ([5]; 24 h) was under 200, the “Log Reduction” value ([5]; 24 h) was over 3.1 and the “Log Value” ([5]; 24 h) was under 2.3. For the same compound, the Average result ([5]; 72 h) was under 200, the “Log Reduction” value ([5]; 72 h) was over 3.1 and the “Log Value” ([5]; 72 h) was under 2.3. The “effect on MRSA growth” value ([6]; 72 h, test 1) was “did not affect MRSA growth”, the Average result ([6]; 24 h) was 9.3 × 10^3 and the “Log Reduction” value ([6]; 24 h) was 0.6. The “Log Value” ([6]; 24 h) was 4.0, the Average result ([6]; 72 h) was 4.0 × 10^4 and the “Log Reduction” value ([6]; 72 h) was “No”. For the same compound, the “Log Value” ([6]; 72 h) was 4.6, the Average result ([7]; 24 h) was under 200 and the “Log Reduction” value ([7]; 24 h) was over 3.1. The “Log Value” ([7]; 24 h) was under 2.3, the Average result ([7]; 72 h) was under 200 and the “Log Reduction” value ([7]; 72 h) was over 3.1. For the same compound, the “Log Value” ([7]; 72 h) was under 2.3, the Average result ([8]; 24 h) was under 200 and the “Log Reduction” value ([8]; 24 h) was over 2.8. For the same compound, the “Log Value” ([8]; 24 h) was under 2.3, the Average result ([8]; 72 h) was under 200 and the “Log Reduction” value ([8]; 72 h) was over 2.8. For the same compound, the “Log Value” ([8]; 72 h) was under 2.3, the Average result ([9]; 24 h) was under 200 and the “Log Reduction” value ([9]; 24 h) was over 3.0. The “Log Value” ([9]; 24 h) was under 2.3, the Average result ([9]; 72 h) was under 200 and the “Log Reduction” value ([9]; 72 h) was over 3.0. For the same compound, the “Log Value” ([9]; 72 h) was under 2.3, the Average result ([10]; 24 h) was 8.7 × 10^4 and the “Log Reduction” value ([10]; 24 h) was 0.4. For the same compound, the “Log Value” ([10]; 24 h) was 4.9, the Average result ([10]; 72 h) was under 800 and the “Log Reduction” value ([10]; 72 h) was over 2.4. The “Log Value” ([10]; 72 h) was under 2.9, the Average result ([11]; 24 h) was 3.1 × 10^5 and the “Log Reduction” value ([11]; 24 h) was “No”. The “Log Value” ([11]; 24 h) was 5.5, the Average result ([11]; 72 h) was under 200 and the “Log Reduction” value ([11]; 72 h) was over 2.5. For the same compound, the “Log Value” ([11]; 72 h) was under 2.3, the Average result ([12]; 24 h) was under 200 and the “Log Reduction” value ([12]; 24 h) was over 3.6. For the same compound, the “Log Value” ([12]; 24 h) was under 2.3, the Average result ([12]; 72 h) was under 200 and the “Log Reduction” value ([12]; 72 h) was over 3.6. For the same compound, the “Log Value” ([12]; 72 h) was under 2.3.
